What was measured:
rice flat sedge = experiment: Test Example 3: herbicidal effect by foliage application, Wagner pot (Table 18, symbol E); format: in vivo, rice flat sedge (Cyperus iria)
In short: (§1)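 Plants were sown in alluvial soil held under 0.1–0.5 cm standing water and grown 14 days in a greenhouse at 25–30 °C. An emulsifiable formulation, water-diluted to the set dose, was then sprayed onto the foliage, and effects were scored three weeks later using previously defined criteria.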

Italian ryegrass [1] = experiment: Test Example 5: herbicidal effect by foliage application, plastic box (Table 20, symbol K); format: in vivo, Italian ryegrass (Lolium multiflorum); conditions: foliage application
In short: (§2)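 Post-emergence foliar test in sterilized diluvial soil. Compound applied as water-diluted emulsion at a predetermined rate to 14-day-old plants; evaluation at three weeks.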

chickweed [2] = experiment: Test Example 5: herbicidal effect by foliage application, plastic box (Table 20, symbol P); format: in vivo, common chickweed (Stellaria media); conditions: foliage application
In short: as §2

redroot pigweed [3] = experiment: Test Example 4: herbicidal effect by soil treatment (Table 19, symbol N); format: in vivo, redroot pigweed (Amaranthus retroflexus); conditions: amount of applied herbicide 320 g/ha
In short: (§3)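 Scoring uses the grading scale of an earlier test, three weeks post-application. Treatment consists of spraying a diluted emulsion formulation across the surface of sterilized diluvial soil in which seeds are buried near 1.5 cm deep; boxes are kept in a greenhouse between 25° C. and 30° C.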

wild oat [4] = experiment: Test Example 4: herbicidal effect by soil treatment (Table 19, symbol I); format: in vivo, wild oat (Avena fatua); conditions: amount of applied herbicide 320 g/ha
In short: as §3

wild oat [5] = experiment: Test Example 5: herbicidal effect by foliage application, plastic box (Table 20, symbol I); format: in vivo, wild oat (Avena fatua); conditions: foliage application
In short: as §2

oval-leafed pondweed = experiment: Test Example 1: herbicidal activity, application before weed generation under submerged conditions (Table 16, symbol C); format: in vivo, oval-leafed pondweed (Monochoria vaginalis)
In short: (§4)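 Alluvial soil was flooded to 4 cm depth, weed seeds were sown mixed and 2.5-leaf rice seedlings were transplanted. On sowing day, the compound's emulsion, diluted in water to a set dose, was applied to the water surface. Plants grew at 25–30 °C and were scored 0–5 after three weeks.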

chickweed [6] = experiment: Test Example 4: herbicidal effect by soil treatment (Table 19, symbol P); format: in vivo, common chickweed (Stellaria media); conditions: amount of applied herbicide 320 g/ha
In short: as §3

southern crabgrass [7] = experiment: Test Example 4: herbicidal effect by soil treatment (Table 19, symbol F); format: in vivo, southern crabgrass (Digitaria ciliaris); conditions: amount of applied herbicide 320 g/ha
In short: as §3

Chinese sprangletop = experiment: Test Example 3: herbicidal effect by foliage application, Wagner pot (Table 18, symbol D); format: in vivo, chinese sprangletop (Leptochloa chinensis)
In short: as §1

green foxtail [8] = experiment: Test Example 5: herbicidal effect by foliage application, plastic box (Table 20, symbol G); format: in vivo, green foxtail (Setaria viridis); conditions: foliage application
In short: as §2

false cleavers = experiment: Test Example 4: herbicidal effect by soil treatment (Table 19, symbol Q); format: in vivo, false cleavers (Galium spurium); conditions: amount of applied herbicide 320 g/ha
In short: as §3

late watergrass = experiment: Test Example 1: herbicidal activity, application before weed generation under submerged conditions (Table 16, symbol A); format: in vivo, late watergrass (Echinochloa oryzicola)
In short: as §4

barnyard grass [9] = experiment: Test Example 3: herbicidal effect by foliage application, Wagner pot (Table 18, symbol H); format: in vivo, barnyard grass (Echinochloa crus-galli); conditions: 320 g/ha
In short: as §1

green foxtail [10] = experiment: Test Example 4: herbicidal effect by soil treatment (Table 19, symbol G); format: in vivo, green foxtail (Setaria viridis); conditions: amount of applied herbicide 320 g/ha
In short: as §3

redroot pigweed [11] = experiment: Test Example 5: herbicidal effect by foliage application, plastic box (Table 20, symbol N); format: in vivo, redroot pigweed (Amaranthus retroflexus); conditions: foliage application
In short: as §2

windgrass [12] = experiment: Test Example 4: herbicidal effect by soil treatment (Table 19, symbol L); format: in vivo, windgrass (Apera spica-venti); conditions: amount of applied herbicide 320 g/ha
In short: as §3

southern crabgrass [13] = experiment: Test Example 5: herbicidal effect by foliage application, plastic box (Table 20, symbol F); format: in vivo, southern crabgrass (Digitaria ciliaris); conditions: foliage application
In short: as §2

windgrass [14] = experiment: Test Example 5: herbicidal effect by foliage application, plastic box (Table 20, symbol L); format: in vivo, windgrass (Apera spica-venti); conditions: foliage application
In short: as §2

barnyard grass [15] = experiment: Test Example 4: herbicidal effect by soil treatment (Table 19, symbol H); format: in vivo, barnyard grass (Echinochloa crus-galli); conditions: amount of applied herbicide 320 g/ha
In short: as §3

lambsquarters [16] = experiment: Test Example 4: herbicidal effect by soil treatment (Table 19, symbol O); format: in vivo, lambsquarters (Chenopodium album); conditions: amount of applied herbicide 320 g/ha
In short: as §3

Italian ryegrass [17] = experiment: Test Example 4: herbicidal effect by soil treatment (Table 19, symbol K); format: in vivo, Italian ryegrass (Lolium multiflorum); conditions: amount of applied herbicide 320 g/ha
In short: as §3

blackgrass [18] = experiment: Test Example 4: herbicidal effect by soil treatment (Table 19, symbol J); format: in vivo, blackgrass (Alopecurus myosuroides); conditions: amount of applied herbicide 320 g/ha
In short: as §3

velvetleaf [19] = experiment: Test Example 5: herbicidal effect by foliage application, plastic box (Table 20, symbol M); format: in vivo, velvetleaf (Abutilon theophrasti); conditions: foliage application
In short: as §2

persian speedwell [20] = experiment: Test Example 4: herbicidal effect by soil treatment (Table 19, symbol R); format: in vivo, Persian speedwell (Veronica persica); conditions: amount of applied herbicide 320 g/ha
In short: as §3

barnyard grass [21] = experiment: Test Example 5: herbicidal effect by foliage application, plastic box (Table 20, symbol H); format: in vivo, barnyard grass (Echinochloa crus-galli); conditions: foliage application
In short: as §2

lambsquarters [22] = experiment: Test Example 5: herbicidal effect by foliage application, plastic box (Table 20, symbol O); format: in vivo, lambsquarters (Chenopodium album); conditions: foliage application
In short: as §2

blackgrass [23] = experiment: Test Example 5: herbicidal effect by foliage application, plastic box (Table 20, symbol J); format: in vivo, blackgrass (Alopecurus myosuroides); conditions: foliage application
In short: as §2

persian speedwell [24] = experiment: Test Example 5: herbicidal effect by foliage application, plastic box (Table 20, symbol R); format: in vivo, Persian speedwell (Veronica persica); conditions: foliage application
In short: as §2

velvetleaf [25] = experiment: Test Example 4: herbicidal effect by soil treatment (Table 19, symbol M); format: in vivo, velvetleaf (Abutilon theophrasti); conditions: amount of applied herbicide 320 g/ha
In short: as §3

Japanese bulrush = experiment: Test Example 1: herbicidal activity, application before weed generation under submerged conditions (Table 16, symbol B); format: in vivo, Japanese bulrush (Schoenoplectus juncoides)
In short: as §4

[26] = 320 g/ha, three weeks after application
[27] = amount of applied herbicide 320 g/ha
[28] = AAH 320 g/ha, evaluated three weeks after application

## CCCC(=O)Oc1c(C)nn(C)c(=O)c1-c1c(-c2ccc(F)c(C)c2)sc2ccccc12 [1-052]
Rice flat sedge; 320 g/ha
  herbicidal effect on E (rice flat sedge), rating 0-5: 5 (Herbicidal rate of 90% or more (almost completely withered))
Italian ryegrass [1]; [26]
  herbicidal effect grade, K: Italian ryegrass: 0 (Herbicidal rate of 5% or less (almost no effect))
Chickweed [2]; [26]
  herbicidal effect grade, P: chickweed: 5 (Herbicidal rate of 90% or more (almost completely withered))
Redroot pigweed [3]
  herbicidal effect rating, N: redroot pigweed: 0 (Herbicidal rate of 5% or less (almost no effect))
Wild oat [4]
  herbicidal effect rating, I: wild oat: 0 (Herbicidal rate of 5% or less (almost no effect))
Wild oat [5]; [26]
  herbicidal effect grade, I: wild oat: 0 (Herbicidal rate of 5% or less (almost no effect))
oval-leafed pondweed; 320 g/ha applied herbicide
  Herbicidal effect on C: oval-leafed pondweed (grade 0-5): 3 (Herbicidal rate of 40% or more and less than 70%)
Chickweed [6]
  herbicidal effect rating, P: chickweed: 4 (Herbicidal rate of 70% or more and less than 90%)
Southern crabgrass [7]
  herbicidal effect rating, F: southern crabgrass: 1 (Herbicidal rate of 5% or more and less than 20%)
Chinese sprangletop; 320 g/ha
  herbicidal effect on D (Chinese sprangletop), rating 0-5: 2 (Herbicidal rate of 20% or more and less than 40%)
Green foxtail [8]; [26]
  herbicidal effect grade, G: green foxtail: 5 (Herbicidal rate of 90% or more (almost completely withered))
False cleavers
  herbicidal effect rating, Q: false cleavers: 0 (Herbicidal rate of 5% or less (almost no effect))
Late watergrass; 320 g/ha applied herbicide
  Herbicidal effect on A: late watergrass (grade 0-5): 3 (Herbicidal rate of 40% or more and less than 70%)
Barnyard grass [9]
  herbicidal effect on H (barnyard grass), rating 0-5: 3 (Herbicidal rate of 40% or more and less than 70%)
Green foxtail [10]
  herbicidal effect rating, G: green foxtail: 4 (Herbicidal rate of 70% or more and less than 90%)
Redroot pigweed [11]; [26]
  herbicidal effect grade, N: redroot pigweed: 3 (Herbicidal rate of 40% or more and less than 70%)
Windgrass [12]
  herbicidal effect rating, L: windgrass: 0 (Herbicidal rate of 5% or less (almost no effect))
Southern crabgrass [13]; [26]
  herbicidal effect grade, F: southern crabgrass: 2 (Herbicidal rate of 20% or more and less than 40%)
Windgrass [14]; [26]
  herbicidal effect grade, L: windgrass: 0 (Herbicidal rate of 5% or less (almost no effect))
Barnyard grass [15]
  herbicidal effect rating, H: barnyard grass: 3 (Herbicidal rate of 40% or more and less than 70%)
Lambsquarters [16]
  herbicidal effect rating, O: lambsquarters: 2 (Herbicidal rate of 20% or more and less than 40%)
Italian ryegrass [17]
  herbicidal effect rating, K: Italian ryegrass: 1 (Herbicidal rate of 5% or more and less than 20%)
Blackgrass [18]
  herbicidal effect rating, J: blackgrass: 0 (Herbicidal rate of 5% or less (almost no effect))
Velvetleaf [19]; [26]
  herbicidal effect grade, M: velvetleaf: 5 (Herbicidal rate of 90% or more (almost completely withered))
Persian speedwell [20]
  herbicidal effect rating, R: persian speedwell: 3 (Herbicidal rate of 40% or more and less than 70%)
Barnyard grass [21]; [26]
  herbicidal effect grade, H: barnyard grass: 3 (Herbicidal rate of 40% or more and less than 70%)
Lambsquarters [22]; [26]
  herbicidal effect grade, O: lambsquarters: 3 (Herbicidal rate of 40% or more and less than 70%)
Blackgrass [23]; [26]
  herbicidal effect grade, J: blackgrass: 0 (Herbicidal rate of 5% or less (almost no effect))
Persian speedwell [24]; [26]
  herbicidal effect grade, R: persian speedwell: 1 (Herbicidal rate of 5% or more and less than 20%)
Velvetleaf [25]
  herbicidal effect rating, M: velvetleaf: 0 (Herbicidal rate of 5% or less (almost no effect))
Japanese bulrush; 320 g/ha applied herbicide
  Herbicidal effect on B: Japanese bulrush (grade 0-5): 1 (Herbicidal rate of 5% or more and less than 20%)

## CCn1nc(C)c(O)c(-c2c(-c3ccc(F)cc3)sc3ccc(F)cc23)c1=O [2-398]
Rice flat sedge; [27]
  herbicidal effect on E: rice flat sedge: 3 (Herbicidal rate of 40% or more and less than 70%)
Italian ryegrass [1]; [28]
  K: Italian ryegrass, herbicidal effect (criteria 0-5): 4 (Herbicidal rate of 70% or more and less than 90%)
Chickweed [2]; [28]
  P: chickweed, herbicidal effect (criteria 0-5): 5 (Herbicidal rate of 90% or more (almost completely withered))
Redroot pigweed [3]
  herbicidal effect, N: redroot pigweed: 4 (Herbicidal rate of 70% or more and less than 90%)
Wild oat [4]
  herbicidal effect, I: wild oat: 0 (Herbicidal rate of 5% or less (almost no effect))
Wild oat [5]; [28]
  I: wild oat, herbicidal effect (criteria 0-5): 0 (Herbicidal rate of 5% or less (almost no effect))
oval-leafed pondweed; [27]
  Herbicidal effect, C: oval-leafed pondweed: 0 (Herbicidal rate of 5% or less (almost no effect))
Chickweed [6]
  herbicidal effect, P: chickweed: 0 (Herbicidal rate of 5% or less (almost no effect))
Southern crabgrass [7]
  herbicidal effect, F: southern crabgrass: 3 (Herbicidal rate of 40% or more and less than 70%)
Chinese sprangletop; [27]
  herbicidal effect on D: Chinese sprangletop: 0 (Herbicidal rate of 5% or less (almost no effect))
Green foxtail [8]; [28]
  G: green foxtail, herbicidal effect (criteria 0-5): 4 (Herbicidal rate of 70% or more and less than 90%)
False cleavers
  herbicidal effect, Q: false cleavers: 0 (Herbicidal rate of 5% or less (almost no effect))
Late watergrass; [27]
  Herbicidal effect, A: late watergrass: 3 (Herbicidal rate of 40% or more and less than 70%)
Green foxtail [10]
  herbicidal effect, G: green foxtail: 3 (Herbicidal rate of 40% or more and less than 70%)
Redroot pigweed [11]; [28]
  N: redroot pigweed, herbicidal effect (criteria 0-5): 5 (Herbicidal rate of 90% or more (almost completely withered))
Windgrass [12]
  herbicidal effect, L: windgrass: 0 (Herbicidal rate of 5% or less (almost no effect))
Southern crabgrass [13]; [28]
  F: southern crabgrass, herbicidal effect (criteria 0-5): 4 (Herbicidal rate of 70% or more and less than 90%)
Windgrass [14]; [28]
  L: windgrass, herbicidal effect (criteria 0-5): 0 (Herbicidal rate of 5% or less (almost no effect))
Barnyard grass [15]
  herbicidal effect, H: barnyard grass: 2 (Herbicidal rate of 20% or more and less than 40%)
Lambsquarters [16]
  herbicidal effect, O: lambsquarters: 3 (Herbicidal rate of 40% or more and less than 70%)
Italian ryegrass [17]
  herbicidal effect, K: Italian ryegrass: 4 (Herbicidal rate of 70% or more and less than 90%)
Blackgrass [18]
  herbicidal effect, J: blackgrass: 0 (Herbicidal rate of 5% or less (almost no effect))
Velvetleaf [19]; [28]
  M: velvetleaf, herbicidal effect (criteria 0-5): 5 (Herbicidal rate of 90% or more (almost completely withered))
Persian speedwell [20]
  herbicidal effect, R: persian speedwell: 1 (Herbicidal rate of 5% or more and less than 20%)
Barnyard grass [21]; [28]
  H: barnyard grass, herbicidal effect (criteria 0-5): 5 (Herbicidal rate of 90% or more (almost completely withered))
Lambsquarters [22]; [28]
  O: lambsquarters, herbicidal effect (criteria 0-5): 4 (Herbicidal rate of 70% or more and less than 90%)
Blackgrass [23]; [28]
  J: blackgrass, herbicidal effect (criteria 0-5): 0 (Herbicidal rate of 5% or less (almost no effect))
Persian speedwell [24]; [28]
  R: persian speedwell, herbicidal effect (criteria 0-5): 5 (Herbicidal rate of 90% or more (almost completely withered))
Velvetleaf [25]
  herbicidal effect, M: velvetleaf: 1 (Herbicidal rate of 5% or more and less than 20%)
Japanese bulrush; [27]
  Herbicidal effect, B: Japanese bulrush: 3 (Herbicidal rate of 40% or more and less than 70%)
